The source made the active and inactive calls. The rule behind the calls is not given here.
Key:
Format in all cases: functional, organism-based
Candida albicans [1] = test: Antifungal activity against exponential phase culture of Candida albicans in YPD medium at 10 to 300 uM at 37 degC after 24 hrs by methylene blue assay
Candida albicans [2] = test: Antifungal activity against stationary phase culture of Candida albicans in YPD medium at 10 to 300 uM at 37 degC after 24 hrs by methylene blue assay
Candida albicans [3] = test: Antifungal activity against stationary phase culture of Candida albicans in GPP medium at 10 to 300 uM at 30 degC after 24 hrs by methylene blue assay
Candida albicans [4] = test: Antifungal activity against exponential phase culture of Candida albicans in YPD medium at 10 to 300 uM at 30 degC after 24 hrs by methylene blue assay
Candida albicans [5] = test: Antifungal activity against log phase culture of Candida albicans at 10 to 300 uM treated directly to growing cultures measured after 4 hrs by methylene blue assay
Candida albicans [6] = test: Antifungal activity against stationary phase culture of Candida albicans in YPD medium at 10 to 300 uM at 30 degC after 24 hrs by methylene blue assay
Candida albicans [7] = test: Antifungal activity against log phase culture of Candida albicans in GPP medium at 40 uM after 24 hrs by methylene blue assay
Candida albicans [8] = test: Antifungal activity against stationary phase culture of Candida albicans in GPP medium at 10 to 300 uM at 25 degC after 24 hrs by methylene blue assay
Candida albicans [9] = test: Antifungal activity against exponential phase culture of Candida albicans in GPP medium at 10 to 300 uM at 37 degC after 24 hrs by methylene blue assay
Candida albicans [10] = test: Antifungal activity against Candida albicans in YPD medium up to 300 uM after 24 hrs by methylene blue assay
Candida albicans [11] = test: Antifungal activity against exponential phase culture of Candida albicans in GPP medium at 10 to 300 uM at 25 degC after 24 hrs by methylene blue assay
Candida albicans [12] = test: Antifungal activity against log phase culture of Candida albicans in GPP medium at 300 uM after 4 hrs by methylene blue assay
Candida albicans [13] = test: Antifungal activity against exponential phase culture of Candida albicans in GPP medium at 40 uM after 24 hrs by methylene blue assay
Candida albicans [14] = test: Antifungal activity against stationary phase culture of Candida albicans in GPP medium up to 300 uM after 24 hrs by methylene blue assay
Candida albicans [15] = test: Antifungal activity against stationary phase culture of Candida albicans in GPP medium at 10 to 300 uM at 37 degC after 24 hrs by methylene blue assay
Candida albicans [16] = test: Antifungal activity against log phase culture of Candida albicans in GPP medium at 100 uM after 1 hr by methylene blue assay
Candida albicans [17] = test: Antifungal activity against exponential phase culture of Candida albicans in YPD medium at 10 to 300 uM at 25 degC after 24 hrs by methylene blue assay
Candida albicans [18] = test: Antifungal activity against exponential phase culture of Candida albicans at 10 to 300 uM treated directly to growing cultures measured after 4 hrs by methylene blue assay
Candida albicans [19] = test: Antifungal activity against exponential phase culture of Candida albicans in GPP medium at 10 to 300 uM at 30 degC after 24 hrs by methylene blue assay
Candida albicans [20] = test: Antifungal activity against stationary phase culture of Candida albicans in YPD medium at 10 to 300 uM at 25 degC after 24 hrs by methylene blue assay
Candida albicans [21] = test: Antifungal activity against Candida albicans in YPD medium at => 300 uM after 24 hrs by methylene blue assay

CC(C)=CCC/C(C)=C/CC/C(C)=C/CO
Activity (Candida albicans [1]): inactive
Activity (Candida albicans [2]): inactive
Activity (Candida albicans [3]): inactive
Activity (Candida albicans [4]): inactive
Activity (Candida albicans [5]): Active
Activity (Candida albicans [6]): inactive
Activity (Candida albicans [7]): Active
Activity (Candida albicans [8]): inactive
Activity (Candida albicans [9]): inactive
Activity (Candida albicans [10]): inactive
Activity (Candida albicans [11]): inactive
Activity (Candida albicans [12]): Active
Activity (Candida albicans [13]): Active
Activity (Candida albicans [14]): inactive
Activity (Candida albicans [15]): inactive
Activity (Candida albicans [16]): Active
Activity (Candida albicans [17]): inactive
Activity (Candida albicans [18]): Active
Activity (Candida albicans [19]): inactive
Activity (Candida albicans [20]): inactive
Activity (Candida albicans [21]): Active
